Converted amounts (≈) assume the structure as drawn. Square brackets hold non-standard residues; d marks the D form. Peptide text beside a SMILES is read from it. * marks the point of attachment. NH(1-CH2NMe2-cBu) = CN(C)CC1(N*)CCC1; Benzoyl(4-F) = O=C(c1ccc(F)cc1)*; hCha = N[C@@H](CCC1CCCCC1)C(=O)O; Aib = CC(C)(N)C(=O)O; βAla = NCCC(=O)O
How the values were obtained:
[1] = Cytotoxicity assay (Alamar Blue) on L6-cells; type: cell-based, rat; conditions: rat
Protocol: Tests were done in triplicate.
The plates were incubated for additional 2 h.

[2] = tested on: Leishmania mexicana (MNYC/BZ/62/m379); experiment: In vivo model of cutaneous leishmaniasis, rump back model in C67BLC/6 mice; conditions: 20 μl 0.1% w/v in DMSO topically bid for 14 days
Text: Mice. C67BLC/6 female mice were purchased from Envigo (Harlan laboratories) Indianapolis, IN, USA. 129SVE female mice were purchased from Taconic Farms, Cambridge City, IN, USA. All experimental mice were maintained at an OSU-ULAR facility in compliance with OSUIACUC.
Parasites and infection. L. mexicana (MNYC/BZ/62/m379) parasites were obtained and maintained as described previously. Promastigotes were maintained, passaged, and subsequently injected into experimental mice (5×10^6 parasites) subcutaneously into their shaven rumps. C67BLC/6 mice were infected with L. mexicana parasites for 6 weeks after which they developed lesions on their back rumps. Mice with similar lesion sizes were selected and randomized into control and treatment groups. From the beginning of treatment animals were housed individually.
Treatment. Treatment group received 20 μl of ZHAW6027 0.1% weight by volume in DMSO, twice a day (bid) for 14 days. […]
Topical drug treatments and lesion measurements. Lesion sizes were measured by using a small animal caliper twice weekly over the 14-day treatment duration and the area of the lesion was calculated by L×W, where L is the length and W is the width. […]
Quantitation of parasitic load. After 2 weeks of treatment animals were sacrificed, and the parasite load in the lesions was quantified. […] Viability of parasites was determined at 10 days of parasite culture. […]

[3] = tested on: Staphylococcus aureus ATCC BAA-1717; experiment: microbe, parasite or virus in culture; type: cell-based; conditions: ATCC BAA-1717, Methicillin resistant; CAMHB II, 1 day at 36° C.; 6027 acetate
[4] = tested on: Staphylococcus aureus NARSA NRS127; experiment: microbe, parasite or virus in culture; type: cell-based; conditions: NARSA NRS127
[5] = tested on: Staphylococcus aureus NARSA NRS22; experiment: microbe, parasite or virus in culture; type: cell-based
[6] = tested on: Staphylococcus epidermidis ATCC 12228; experiment: MIC broth microdilution, method 1; type: cell-based; conditions: 6027 acetate
[7] = tested on: Staphylococcus aureus ATCC 43300, MRSA; type: cell-based; conditions: ATCC 43300, 18 h
Protocol: The antibacterial activity of inventive compounds was evaluated in duplicate in a further Minimum Inhibitory Concentration (MIC) assay.
Bacteria were cultured in Cation-adjusted Mueller Hinton broth (CAMHB) at 37° C. overnight. A sample of each culture was then diluted 40-fold in fresh broth and incubated at 37° C. for 1.5-3 h. The resultant mid-log phase cultures were diluted (CFU/mL measured by OD600), then added to each well of the compound containing plates, giving a cell density of 5×10^5 CFU/mL and a total volume of 50 μL. All the plates were covered and incubated at 37° C. for 18 h without shaking.
Samples were prepared in DMSO and serially diluted 2 fold 8 times. Each sample concentration was prepared in 384-well plates, non-binding surface plate (NBS; Corning 3640) for the bacterial strain ATCC 43300, MRSA. The final DMSO concentration was at a maximum of 0.5%.
Inhibition of bacterial growth was determined measuring absorbance at 600 nm (OD600), using a Tecan M1000 Pro monochromator plate reader. The percentage of growth inhibition was calculated for each well, using the negative control (media only) and positive control (bacteria without inhibitors) on the same plate as references. […] Vancomycin was used as positive bacterial inhibitor standards.

physchem = conditions: water

With `CC(C)C[C@H](NC(=O)[C@H](CCC1CCCCC1)NC(=O)[C@@H]1CCCN1C(=O)c1ccc(F)cc1)C(=O)NC(C)(C)C(=O)N[C@@H](CC(C)C)C(=O)N[C@@H](CC(C)C)C(=O)NC(C)(C)C(=O)NC(C)(C)C(=O)NCCC(=O)NC1(CN(C)C)CCC1` [Compound 6027, (2S)-2-[(2S)-4-cyclohexyl-2-{[(2S)-1-(4-fluorobenzoyl)pyrrolidin-2-yl]formamido}butanamido]-N-(1-{[(1S)-1-{[(1S)-1-({1-[(1-{[2-({1-[(dimethylamino)methyl]cyclobutyl}carbamoyl)ethyl]carbamoyl}-1-methylethyl)carbamoyl]-1-methylethyl}carbamoyl)-3-methylbutyl]carbamoyl}-3-methylbutyl]carbamoyl}-1-methylethyl)-4-methylpentanamide] ({Benzoyl(4-F)}-P[hCha]L[Aib]LL[Aib][Aib][βAla]-{NH(1-CH2NMe2-cBu)}) the IC50 at 68 h [1] was 1340 nM, the “reduction of parasite loads in lesions compared to the control” value ([2]; limiting dilution assay, FIG. 2) was “about 3 orders of magnitude” and the “volume of the induced CL lesions over time” value ([2]; vs vehicle (DMSO), where lesions increased, FIG. 1) was “gradually reduced”. For the same compound, the “MIC of 6027” value [3] was 1 µg/mL, the “MIC of 6027” value [4] was 2 µg/mL and the “MIC of 6027” value [5] was 2 µg/mL. The “MIC of 6027” value [6] was 2 µg/mL, the “MIC” value [7] was 2 µg/mL (≈ 1.69 µM) and the solubility (physchem) was 22 µg/mL (≈ 18.6 µM).
